Literature values in patent US20230174569A1, “PROCESS PER PREPARING (3a,5a)-20-OXOPREGNAN-3-YL GLYCYL-L-VALINATE HYDROCHLORIDE” ([…] S.R.L., priority 2021, published 2023).
Where a name gives a salt, the structure may show the parent alone.

Experiments:
[1] = compared with Brexanolone
[2] = compared with Brexanolone; remark: listed apart in the source

CC(=O)[C@H]1CC[C@H]2[C@@H]3CC[C@H]4C[C@H](OC(=O)[C@@H](NC(=O)CN)C(C)C)CC[C@]4(C)[C@H]3CC[C@]12C [compound I, (3α,5α)-20-oxopregnan-3-yl glycyl-L-valinate hydrochloride]
water solubility [1]: better profile than Brexanolone | storage stability in aqueous solutions [2]: better profile than Brexanolone
